Measurements from patent US10597620B2, “Taste modifiers comprising a chlorogenic acid” (GIVAUDAN SA, priority 2001, dated 2020).

Experiment: Flavorist panel evaluation of aged artificially sweetened beverage with added chlorogenic acid
Type: in vivo
Conditions: final concentration 0.003% w/v; compared to untreated beverage; six member panel of trained flavorists
Procedure: An artificially sweetened beverage is prepared by mixing 1.4 g aspartame, 0.9 g acesulfame K, 6 ml sodium benzoate (25%^w/v in water), 1.3 ml phosphoric acid (85%^w/v), and 0.5 ml citric acid (50%^w/v in water). The volume of the mixture is adjusted to 1000 ml with water. The beverage mixture is aged for three weeks at 34° C.
A 2.8%^w/w solution of a commercially available synthetic chlorogenic acid (>95% pure (1,3,4,5-tetrahydroxy-cyclohexanecarboxylic acid 3-[3,4-dihydroxycinnamate]), Sigma Chemical Co., St. Louis, Mo.), in water, pH 5.6, is added to a portion of the aged beverage to a final concentration of 0.003%^w/v. The beverage containing chlorogenic acid is evaluated and compared to the untreated beverage by a six member panel of trained flavorists. The beverage containing the commercial chlorogenic acid is judged by the panel to display markedly less of the metallic, slightly bitter aftertaste found in the aged artificially sweetened beverage.
To another portion of the artificially sweetened beverage prepared as described in the first paragraph of Example 6, an aqueous solution of chlorogenic acid from the powdered extract of green coffee beans is added to a final concentration of 0.003%^w/v chlorogenic acid. This beverage is evaluated by the same flavorist panel as described in Example 6. […]

For O=C(C=Cc1ccc(O)c(O)c1)OC1CC(O)(C(=O)O)CC(O)C1O (stereo not shown) [synthetic chlorogenic acid, 1,3,4,5-tetrahydroxy-cyclohexanecarboxylic acid 3-[3,4-dihydroxycinnamate]], the “metallic, slightly bitter aftertaste found in the aged artificially sweetened beverage” value was “markedly less”.
